Assay results reported in ChEMBL document CHEMBL4627299, “Computational discovery and biological evaluation of novel inhibitors targeting histone-lysine N-methyltransferase SET7” (Bioorg Med Chem, 2020).
pIC50: −log10 of the molar value. Activity calls are given as the source filed them. The rule behind the calls is not given here.

Tests used:
[1] = molecular target: T1, Histone-lysine N-methyltransferase SETD7 (Homo sapiens) (UniProt Q8WTS6); test: Inhibition of human SET7 overexpressed in Escherichia coli BL21 (DE3) cells at 50 uM preincubated for 15 mins followed by addition of SAM as substrate and biotinylated Histone H3 (1-50) peptide measured after 30 mins by AlphaLISA assay relative to control
T1 sequence (whole entry): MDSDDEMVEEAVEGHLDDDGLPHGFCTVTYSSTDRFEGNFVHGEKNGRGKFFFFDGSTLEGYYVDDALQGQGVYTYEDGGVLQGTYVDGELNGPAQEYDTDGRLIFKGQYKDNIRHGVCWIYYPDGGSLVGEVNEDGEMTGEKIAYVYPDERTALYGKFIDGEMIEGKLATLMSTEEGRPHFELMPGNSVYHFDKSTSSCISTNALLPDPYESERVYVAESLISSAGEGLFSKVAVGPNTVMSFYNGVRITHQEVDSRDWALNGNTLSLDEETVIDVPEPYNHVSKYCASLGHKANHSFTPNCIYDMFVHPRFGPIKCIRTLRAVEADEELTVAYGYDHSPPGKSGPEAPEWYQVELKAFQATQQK

[2] = molecular target: T1, Histone-lysine N-methyltransferase SETD7 (Homo sapiens); test: Inhibition of human SET7 overexpressed in Escherichia coli BL21 (DE3) cells at 25 uM preincubated for 15 mins followed by addition of SAM as substrate and biotinylated Histone H3 (1-50) peptide measured after 30 mins by AlphaLISA assay relative to control
[3] = molecular target: T1, Histone-lysine N-methyltransferase SETD7 (Homo sapiens); test: Inhibition of human SET7 overexpressed in Escherichia coli BL21 (DE3) cells at 12.5 uM preincubated for 15 mins followed by addition of SAM as substrate and biotinylated Histone H3 (1-50) peptide measured after 30 mins by AlphaLISA assay relative to control
[4] = molecular target: T2, Histone-lysine N-methyltransferase SETD7 (Homo sapiens, UniProt Q8WTS6); test: Inhibition of human SET7 overexpressed in Escherichia coli BL21 (DE3) cells preincubated for 15 mins followed by addition of SAM as substrate and biotinylated Histone H3 (1-50) peptide measured after 30 mins by AlphaLISA assay relative to control
T2 sequence (Q8WTS6 whole entry): T1 sequence (whole entry)

[5] = molecular target: T3, Histone-lysine N-methyltransferase EZH1 (Homo sapiens, UniProt Q92800); test: Inhibition of Ezh1 (unknown origin) preincubated for 15 mins followed by addition of substrate measured after 1 hr by AlphaLISA assay
T3 sequence (Q92800 whole entry): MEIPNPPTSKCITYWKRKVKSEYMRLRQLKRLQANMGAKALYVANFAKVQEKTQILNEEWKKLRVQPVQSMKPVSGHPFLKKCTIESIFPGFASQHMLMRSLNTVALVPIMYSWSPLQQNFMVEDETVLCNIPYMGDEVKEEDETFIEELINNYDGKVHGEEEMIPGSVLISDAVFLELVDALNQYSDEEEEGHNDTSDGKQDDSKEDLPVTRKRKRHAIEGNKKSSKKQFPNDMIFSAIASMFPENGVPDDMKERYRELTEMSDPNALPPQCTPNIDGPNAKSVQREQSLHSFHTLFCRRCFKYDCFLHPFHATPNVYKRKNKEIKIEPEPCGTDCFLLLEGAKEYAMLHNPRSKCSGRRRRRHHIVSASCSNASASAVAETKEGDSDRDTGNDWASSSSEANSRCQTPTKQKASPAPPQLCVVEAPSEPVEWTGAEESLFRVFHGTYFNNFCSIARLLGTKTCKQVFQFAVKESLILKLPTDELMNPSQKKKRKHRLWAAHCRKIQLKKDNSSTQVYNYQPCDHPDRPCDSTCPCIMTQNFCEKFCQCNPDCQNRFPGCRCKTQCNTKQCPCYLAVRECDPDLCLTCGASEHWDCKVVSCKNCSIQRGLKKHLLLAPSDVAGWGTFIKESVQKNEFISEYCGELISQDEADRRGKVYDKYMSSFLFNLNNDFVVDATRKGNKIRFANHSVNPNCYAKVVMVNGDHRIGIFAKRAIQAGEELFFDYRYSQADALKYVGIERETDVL

[6] = molecular target: T4, Histone-lysine N-methyltransferase SMYD3 (Homo sapiens, UniProt Q9H7B4); test: Inhibition of SMYD3 (unknown origin) preincubated for 15 mins followed by addition of [3H]-SAM as substrate and peptide solution after 240 mins cold SAM was added measured after 1 hr by radioisotope assay
T4 sequence (Q9H7B4 whole entry): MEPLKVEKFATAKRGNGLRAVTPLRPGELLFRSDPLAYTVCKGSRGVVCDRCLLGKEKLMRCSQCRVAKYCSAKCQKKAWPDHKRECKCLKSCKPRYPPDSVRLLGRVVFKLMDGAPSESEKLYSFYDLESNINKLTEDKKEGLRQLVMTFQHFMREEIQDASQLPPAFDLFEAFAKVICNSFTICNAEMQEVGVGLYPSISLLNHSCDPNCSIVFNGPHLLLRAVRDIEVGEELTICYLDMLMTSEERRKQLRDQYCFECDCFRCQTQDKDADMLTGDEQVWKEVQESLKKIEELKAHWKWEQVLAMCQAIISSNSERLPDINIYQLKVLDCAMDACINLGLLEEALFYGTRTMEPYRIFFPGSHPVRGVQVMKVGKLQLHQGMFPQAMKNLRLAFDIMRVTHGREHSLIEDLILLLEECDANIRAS

[7] = molecular target: Histone-lysine N-methyltransferase 2A (Homo sapiens, UniProt Q03164); test: Inhibition of MLL1 (unknown origin) preincubated for 15 mins followed by addition of substrate measured after 1 hr by AlphaLISA assay
[8] = molecular target: T5, Histone-lysine N-methyltransferase NSD2 (Homo sapiens, UniProt O96028); test: Inhibition of NSD2 (unknown origin) preincubated for 15 mins followed by addition of [3H]-SAM as substrate and peptide solution after 240 mins cold SAM was added measured by radioisotope assay
T5 sequence (O96028 whole entry): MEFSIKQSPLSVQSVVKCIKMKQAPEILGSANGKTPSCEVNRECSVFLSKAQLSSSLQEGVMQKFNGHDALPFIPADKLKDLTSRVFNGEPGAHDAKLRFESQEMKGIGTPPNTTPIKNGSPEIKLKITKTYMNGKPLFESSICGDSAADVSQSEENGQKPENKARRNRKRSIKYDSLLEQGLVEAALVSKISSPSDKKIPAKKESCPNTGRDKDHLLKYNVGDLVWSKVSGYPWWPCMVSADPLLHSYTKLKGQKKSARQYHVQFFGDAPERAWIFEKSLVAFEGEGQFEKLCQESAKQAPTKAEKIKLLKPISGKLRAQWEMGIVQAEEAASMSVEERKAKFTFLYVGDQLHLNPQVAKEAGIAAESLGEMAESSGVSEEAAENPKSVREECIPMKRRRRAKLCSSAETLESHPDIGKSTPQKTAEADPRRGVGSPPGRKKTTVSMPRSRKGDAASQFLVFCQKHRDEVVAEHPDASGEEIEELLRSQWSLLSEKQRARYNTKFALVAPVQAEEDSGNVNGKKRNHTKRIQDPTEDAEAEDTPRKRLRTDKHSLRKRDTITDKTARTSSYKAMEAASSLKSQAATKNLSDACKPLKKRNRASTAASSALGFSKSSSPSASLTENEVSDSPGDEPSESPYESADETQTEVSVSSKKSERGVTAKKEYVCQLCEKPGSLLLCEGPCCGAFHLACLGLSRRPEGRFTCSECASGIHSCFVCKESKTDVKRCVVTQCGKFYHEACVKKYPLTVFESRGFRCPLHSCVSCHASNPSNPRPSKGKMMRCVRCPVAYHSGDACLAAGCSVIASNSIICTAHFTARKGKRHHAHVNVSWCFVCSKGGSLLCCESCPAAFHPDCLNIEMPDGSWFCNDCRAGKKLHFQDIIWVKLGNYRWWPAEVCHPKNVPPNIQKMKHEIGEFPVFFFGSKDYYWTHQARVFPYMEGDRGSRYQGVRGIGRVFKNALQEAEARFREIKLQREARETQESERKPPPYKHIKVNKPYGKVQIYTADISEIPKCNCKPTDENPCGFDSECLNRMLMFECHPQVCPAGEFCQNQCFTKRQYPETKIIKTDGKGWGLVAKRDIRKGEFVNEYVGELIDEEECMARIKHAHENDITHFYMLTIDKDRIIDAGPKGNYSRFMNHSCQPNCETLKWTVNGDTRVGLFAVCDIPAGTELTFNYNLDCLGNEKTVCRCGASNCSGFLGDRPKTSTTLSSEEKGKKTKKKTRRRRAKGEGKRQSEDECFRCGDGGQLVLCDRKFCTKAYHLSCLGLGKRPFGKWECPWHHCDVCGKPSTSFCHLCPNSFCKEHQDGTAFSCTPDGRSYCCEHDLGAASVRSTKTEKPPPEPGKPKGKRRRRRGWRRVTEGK

[9] = system: MDA-MB-231; test: Antiproliferation activity against human MDA-MB-231 cells assessed as reduction in cell viability measured by Cell-titer-Glo assay; type: functional, cell-based
[10] = system: A549; test: Antiproliferation activity against human A549 cells assessed as reduction in cell viability measured by Cell-titer-Glo assay; type: functional, cell-based
[11] = system: HeLa; test: Antiproliferation activity against human HeLa cells assessed as reduction in cell viability measured by Cell-titer-Glo assay; type: functional, cell-based
[12] = system: MCF7; test: Antiproliferation activity against human MCF7 cells assessed as reduction in cell viability measured by Cell-titer-Glo assay; type: functional, cell-based
[13] = system: MV4-11; test: Antiproliferation activity against human MV4-11 cells assessed as reduction in cell viability measured by Cell-titer-Glo assay; type: functional, cell-based
[14] = organism: Homo sapiens; test: Antiproliferation activity against human UMCHOR1 cells assessed as reduction in cell viability measured by Cell-titer-Glo assay; type: functional, cell-based

Chain of Histone-lysine N-methyltransferase 2A (Q03164 1-2718 limits assumed): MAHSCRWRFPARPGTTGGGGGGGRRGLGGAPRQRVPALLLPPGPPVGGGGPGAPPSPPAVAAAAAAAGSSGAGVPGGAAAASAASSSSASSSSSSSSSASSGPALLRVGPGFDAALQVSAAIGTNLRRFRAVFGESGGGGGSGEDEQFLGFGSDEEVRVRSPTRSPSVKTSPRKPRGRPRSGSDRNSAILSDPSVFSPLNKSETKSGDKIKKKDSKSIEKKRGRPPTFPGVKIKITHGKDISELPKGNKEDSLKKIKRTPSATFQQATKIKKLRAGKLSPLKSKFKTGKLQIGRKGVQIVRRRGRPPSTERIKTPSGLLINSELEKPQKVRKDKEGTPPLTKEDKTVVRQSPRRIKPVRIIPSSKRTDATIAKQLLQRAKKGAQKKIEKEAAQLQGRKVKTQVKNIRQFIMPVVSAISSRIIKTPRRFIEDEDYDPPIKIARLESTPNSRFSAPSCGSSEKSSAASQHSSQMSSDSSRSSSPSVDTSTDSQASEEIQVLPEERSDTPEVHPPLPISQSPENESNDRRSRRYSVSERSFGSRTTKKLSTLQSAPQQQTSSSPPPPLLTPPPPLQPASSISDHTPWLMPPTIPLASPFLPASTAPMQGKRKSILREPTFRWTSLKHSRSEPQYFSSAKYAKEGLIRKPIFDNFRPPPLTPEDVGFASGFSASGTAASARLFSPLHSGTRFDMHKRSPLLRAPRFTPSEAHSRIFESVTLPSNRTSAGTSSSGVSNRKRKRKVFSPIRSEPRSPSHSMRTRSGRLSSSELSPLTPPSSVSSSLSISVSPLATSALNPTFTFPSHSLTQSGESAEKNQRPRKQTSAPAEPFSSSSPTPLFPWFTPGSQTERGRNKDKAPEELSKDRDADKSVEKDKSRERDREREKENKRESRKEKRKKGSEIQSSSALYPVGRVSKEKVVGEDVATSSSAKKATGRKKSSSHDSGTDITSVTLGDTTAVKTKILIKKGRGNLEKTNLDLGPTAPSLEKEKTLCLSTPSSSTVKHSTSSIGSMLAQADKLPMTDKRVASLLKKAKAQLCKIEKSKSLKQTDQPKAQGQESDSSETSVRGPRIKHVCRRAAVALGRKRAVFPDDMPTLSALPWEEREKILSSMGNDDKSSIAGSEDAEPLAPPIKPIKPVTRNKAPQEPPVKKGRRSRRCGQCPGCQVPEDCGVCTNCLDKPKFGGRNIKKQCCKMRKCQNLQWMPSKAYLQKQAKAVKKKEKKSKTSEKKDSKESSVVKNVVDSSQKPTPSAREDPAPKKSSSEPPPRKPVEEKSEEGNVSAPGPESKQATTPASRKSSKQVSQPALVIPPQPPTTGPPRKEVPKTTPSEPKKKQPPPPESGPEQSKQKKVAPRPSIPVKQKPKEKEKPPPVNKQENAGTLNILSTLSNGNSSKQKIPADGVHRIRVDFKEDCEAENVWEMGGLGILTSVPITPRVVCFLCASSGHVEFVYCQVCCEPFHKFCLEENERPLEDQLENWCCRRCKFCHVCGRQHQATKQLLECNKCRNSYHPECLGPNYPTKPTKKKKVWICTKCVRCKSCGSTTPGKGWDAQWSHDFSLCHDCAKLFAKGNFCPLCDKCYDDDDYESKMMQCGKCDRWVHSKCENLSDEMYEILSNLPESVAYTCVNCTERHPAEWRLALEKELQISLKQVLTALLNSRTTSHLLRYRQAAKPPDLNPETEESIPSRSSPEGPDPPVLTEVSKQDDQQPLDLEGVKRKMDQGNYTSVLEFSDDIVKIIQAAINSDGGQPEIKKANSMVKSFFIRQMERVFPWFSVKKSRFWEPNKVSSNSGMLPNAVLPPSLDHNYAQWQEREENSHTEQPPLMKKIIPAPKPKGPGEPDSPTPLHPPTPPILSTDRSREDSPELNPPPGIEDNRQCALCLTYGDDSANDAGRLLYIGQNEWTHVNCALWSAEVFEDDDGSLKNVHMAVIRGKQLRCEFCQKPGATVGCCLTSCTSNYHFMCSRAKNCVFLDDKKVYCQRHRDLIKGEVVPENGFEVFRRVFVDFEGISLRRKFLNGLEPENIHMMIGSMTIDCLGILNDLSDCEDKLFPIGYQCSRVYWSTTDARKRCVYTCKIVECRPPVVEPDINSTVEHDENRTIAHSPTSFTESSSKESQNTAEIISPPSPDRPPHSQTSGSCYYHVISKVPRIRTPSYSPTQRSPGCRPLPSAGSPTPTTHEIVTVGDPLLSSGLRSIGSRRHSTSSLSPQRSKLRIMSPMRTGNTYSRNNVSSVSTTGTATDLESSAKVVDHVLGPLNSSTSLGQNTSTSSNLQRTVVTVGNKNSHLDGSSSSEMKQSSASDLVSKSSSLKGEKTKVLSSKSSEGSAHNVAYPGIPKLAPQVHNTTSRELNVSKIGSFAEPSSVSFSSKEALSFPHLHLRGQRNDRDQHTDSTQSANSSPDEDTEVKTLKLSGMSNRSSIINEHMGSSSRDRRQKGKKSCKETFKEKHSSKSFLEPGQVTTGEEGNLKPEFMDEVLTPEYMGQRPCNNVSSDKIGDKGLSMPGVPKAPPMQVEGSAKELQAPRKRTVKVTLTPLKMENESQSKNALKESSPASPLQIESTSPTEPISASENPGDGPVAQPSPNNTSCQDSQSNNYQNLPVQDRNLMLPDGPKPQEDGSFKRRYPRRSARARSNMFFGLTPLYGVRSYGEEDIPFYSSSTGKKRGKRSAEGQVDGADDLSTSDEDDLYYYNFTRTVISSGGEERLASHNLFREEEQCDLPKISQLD
Chain of Histone-lysine N-methyltransferase 2A (Q03164 2719-3969 limits assumed): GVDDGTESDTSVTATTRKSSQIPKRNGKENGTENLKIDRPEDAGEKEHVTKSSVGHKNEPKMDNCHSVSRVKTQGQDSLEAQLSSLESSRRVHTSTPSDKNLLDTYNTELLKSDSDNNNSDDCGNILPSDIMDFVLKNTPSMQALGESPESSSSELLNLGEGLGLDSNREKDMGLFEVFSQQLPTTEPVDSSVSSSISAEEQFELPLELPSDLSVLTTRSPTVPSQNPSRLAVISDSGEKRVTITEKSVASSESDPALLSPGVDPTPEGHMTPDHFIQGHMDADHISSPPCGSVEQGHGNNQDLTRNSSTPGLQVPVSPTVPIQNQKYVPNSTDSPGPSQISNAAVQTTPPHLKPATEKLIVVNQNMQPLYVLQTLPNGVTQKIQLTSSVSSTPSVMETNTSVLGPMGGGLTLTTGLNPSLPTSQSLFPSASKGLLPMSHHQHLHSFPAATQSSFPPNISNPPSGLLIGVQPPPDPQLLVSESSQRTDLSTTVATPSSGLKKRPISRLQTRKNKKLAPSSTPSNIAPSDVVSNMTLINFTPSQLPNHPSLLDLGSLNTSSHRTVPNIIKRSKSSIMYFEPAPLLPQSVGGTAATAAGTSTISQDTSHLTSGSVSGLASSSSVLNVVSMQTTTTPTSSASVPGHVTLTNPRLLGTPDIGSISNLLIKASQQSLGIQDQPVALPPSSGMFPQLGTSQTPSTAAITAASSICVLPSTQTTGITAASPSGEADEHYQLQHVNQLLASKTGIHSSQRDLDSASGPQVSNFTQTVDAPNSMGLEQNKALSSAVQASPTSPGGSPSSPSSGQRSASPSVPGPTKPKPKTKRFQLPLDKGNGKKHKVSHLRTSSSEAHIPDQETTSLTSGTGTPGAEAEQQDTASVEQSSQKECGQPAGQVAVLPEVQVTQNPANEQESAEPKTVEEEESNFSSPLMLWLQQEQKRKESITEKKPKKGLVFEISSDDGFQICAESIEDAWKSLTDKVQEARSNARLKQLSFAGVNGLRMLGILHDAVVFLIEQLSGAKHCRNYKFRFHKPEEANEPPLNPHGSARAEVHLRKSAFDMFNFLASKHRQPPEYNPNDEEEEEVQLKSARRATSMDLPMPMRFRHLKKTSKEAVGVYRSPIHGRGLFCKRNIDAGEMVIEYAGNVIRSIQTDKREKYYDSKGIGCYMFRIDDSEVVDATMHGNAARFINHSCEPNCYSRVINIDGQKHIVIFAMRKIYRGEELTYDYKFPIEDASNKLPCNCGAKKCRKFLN

Row | Structure (SMILES) | inhibition [1] [%] | inhibition [2] [%] | inhibition [3] [%] | pIC50 [4] | other results
1 | COC(=O)[C@H](Cc1ccccc1)NC(=O)[C@@H](N)CC(=O)O | 10 | 32 | 17 |  | 
2 | N[C@@H](CC(=O)N1CCn2c(nnc2C(F)(F)F)C1)Cc1cc(F)c(F)cc1F |  | 6 |  |  | 
3 | O=c1c(O)c(-c2ccc(O)cc2)oc2cc(O)cc(O)c12 [KAEMPFEROL] |  |  |  | < 3.70 | 
4 | CCn1cc(C(=O)O)c(=O)c2cc(F)c(N3CCNC(C)C3)c(F)c21 (centres undefined) | 14 | 23 | 19 |  | 
5 | O=c1cc(-c2ccc(O)c(O)c2)oc2cc(O)cc(O)c12 [LUTEOLIN] |  |  |  | 5.22 | 
6 | Cc1cnc(NC(=O)C2=C(O)c3ccccc3S(=O)(=O)N2C)s1 | 23 | 29 | 18 |  | 
7 | Cc1cc([N+](=O)[O-])ccc1NS(=O)(=O)c1cc(Cl)ccc1Cl | 26 | 26 | 17 |  | 
8 | O=C(Nc1c(Cl)cncc1Cl)c1ccc(OC(F)F)c(OCC2CC2)c1 | 23 | 19 | 27 |  | 
9 | CC(C)=CC[C@@H](O)C1=CC(=O)c2c(O)ccc(O)c2C1=O [SHIKONIN] | 90 | 72 | 50 | 4.67 | 
10 | CCN1CCCC1CNC(=O)c1cc(S(=O)(=O)CC)c(N)cc1OC (centres undefined) | 3 | 14 | 14 |  | 
11 | Cc1oncc1C(=O)Nc1ccc(C(F)(F)F)cc1 |  | 4 |  |  | 
12 | O=C(N/N=C/c1ccc([N+](=O)[O-])o1)c1ccc(O)cc1 | 7 | 18 | 8 |  | 
13 | CC(C)=CCC1=C(O)C(=O)c2ccccc2C1=O |  | 4 | 3 |  | 
14 | CC(C)C[C@H](NC(=O)[C@H](Cc1ccccc1)NC(=O)c1cnccn1)B(O)O | 24 | 19 | 18 |  | 

Second part, led by results:

Row | inhibition [1] [%] | inhibition [2] [%] | inhibition [3] [%] | pIC50 [4] | Structure (SMILES) | other results
15 |  |  |  | < 3.70 | O=c1c(O)c(-c2ccccc2)oc2cc(O)cc(O)c12 [GALANGIN] | 
16 | 87 | 62 | 40 | 5.22 | O=c1c(O)c(-c2ccc(O)cc2O)oc2cc(O)cc(O)c12 [MORIN] | 
17 |  |  |  | 5.71 | O=c1cc(-c2ccc(O)cc2)oc2cc(O)c(O)c(O)c12 [SCUTELLAREIN] | pIC50 [5]: 5.06; pIC50 [6]: 4.74; pIC50 [7]: 5.53; pIC50 [8]: 5.58; Activity [9]: inactive; Activity [10]: inactive; Activity [11]: inactive; Activity [12]: inactive; pIC50 [13]: 4.57; Activity [14]: inactive
18 | 4 | 10 | 19 |  | COc1c(O)cc(O)c2c(=O)cc(-c3ccccc3)oc12 | 
19 |  |  |  | < 3.70 | O=C1C[C@@H](c2ccc(O)c(O)c2)Oc2cc(O)cc(O)c21 [ERIODICTYOL] | 
20 |  |  |  | < 3.70 | COc1ccc(-c2oc3cc(O)cc(O)c3c(=O)c2O)cc1 [KAEMPFERIDE] | 
21 | 39 | 28 | 17 |  | C=CC(C)(C)c1cc(/C=C/C(=O)c2ccc(O)cc2)c(OC)cc1O | 
22 | 18 | 11 | 9 |  | COc1cc(O)c(CC=C(C)C)c(O)c1C(=O)/C=C/c1ccc(O)cc1 | 
23 | 14 | 6 | 5 |  | O=c1c(-c2ccc(O)cc2)coc2cc(O)ccc12 | 
